# Measurements as given in PMC3413742 (Biological psychiatry, 2012).
# Tests used:
# NET [1] = molecular target: T1, NET (Homo sapiens, UniProt P23975); test: [3H]DA uptake inhibition at the NET; assay type: cell-based
# NET [2] = molecular target: T1, NET; test: [3H]nisoxetine binding at the NET
# [3] = test system: mice trained to discriminate cocaine (10 mg/kg) from saline; test: Cocaine discrimination procedure; assay type: in vivo, mouse; details: for substitution for the discriminative-stimulus effects of cocaine: pretreatment time 60 min
# hDAT Y335A = hDAT Y335A (Homo sapiens, UniProt Q01959, Y335A); test: [3H]DA uptake inhibition in COS-7 cells expressing hDAT Y335A mutant; assay type: cell-based
# Sequence of hDAT Y335A (Q01959 whole entry Y335A): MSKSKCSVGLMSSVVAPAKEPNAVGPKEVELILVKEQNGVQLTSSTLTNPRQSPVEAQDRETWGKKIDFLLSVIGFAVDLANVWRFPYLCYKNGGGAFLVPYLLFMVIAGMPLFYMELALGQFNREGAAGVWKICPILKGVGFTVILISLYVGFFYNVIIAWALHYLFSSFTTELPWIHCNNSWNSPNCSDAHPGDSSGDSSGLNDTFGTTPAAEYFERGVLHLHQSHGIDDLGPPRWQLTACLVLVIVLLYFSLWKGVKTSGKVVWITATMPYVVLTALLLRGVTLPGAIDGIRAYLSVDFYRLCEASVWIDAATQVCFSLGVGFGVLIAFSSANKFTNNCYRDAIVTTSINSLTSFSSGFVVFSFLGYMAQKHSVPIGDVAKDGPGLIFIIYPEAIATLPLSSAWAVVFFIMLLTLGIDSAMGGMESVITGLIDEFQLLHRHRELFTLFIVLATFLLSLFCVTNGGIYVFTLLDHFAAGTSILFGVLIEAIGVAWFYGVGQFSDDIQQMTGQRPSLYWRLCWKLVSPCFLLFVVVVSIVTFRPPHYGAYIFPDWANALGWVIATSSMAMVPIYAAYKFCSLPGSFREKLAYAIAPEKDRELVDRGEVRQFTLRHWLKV
# [4] = test system: extracellular DA concentrations in the mouse NAc shell; test: Microdialysis of extracellular DA in the NAc shell; assay type: in vivo
# hDAT WT [5] = molecular target: T2, hDAT WT (Homo sapiens, UniProt Q01959); test: [3H]DA uptake inhibition in COS-7 cells transiently expressing hDAT WT; assay type: cell-based
# T2 sequence (Q01959 whole entry): as the sequence (Q01959 whole entry Y335A) above, with A335Y counted along it
# hDAT WT [6] = molecular target: T2, hDAT WT; test: [3H]WIN 35,428 binding in COS-7 cells transiently expressing hDAT WT; details: R- versus S-modafinil
# DAT = details: rat brain tissue; cited from earlier work
# T1 sequence (P23975 whole entry): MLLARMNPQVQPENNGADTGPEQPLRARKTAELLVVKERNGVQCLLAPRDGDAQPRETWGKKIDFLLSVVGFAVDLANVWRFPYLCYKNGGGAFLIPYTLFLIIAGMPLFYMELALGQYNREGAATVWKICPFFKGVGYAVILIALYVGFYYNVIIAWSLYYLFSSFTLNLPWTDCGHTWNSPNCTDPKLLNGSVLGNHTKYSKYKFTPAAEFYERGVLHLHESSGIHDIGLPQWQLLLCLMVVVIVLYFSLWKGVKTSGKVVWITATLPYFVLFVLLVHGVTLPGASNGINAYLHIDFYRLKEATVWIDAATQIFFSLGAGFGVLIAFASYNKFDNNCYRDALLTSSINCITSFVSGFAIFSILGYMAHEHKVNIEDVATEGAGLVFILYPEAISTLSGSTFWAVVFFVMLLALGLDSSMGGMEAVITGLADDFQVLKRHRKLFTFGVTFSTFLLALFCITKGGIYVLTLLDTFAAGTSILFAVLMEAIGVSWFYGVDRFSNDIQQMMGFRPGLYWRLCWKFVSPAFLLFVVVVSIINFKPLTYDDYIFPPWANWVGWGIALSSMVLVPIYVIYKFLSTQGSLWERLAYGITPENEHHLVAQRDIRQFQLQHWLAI
smiles,measurement,setting,value
"NC(=O)C[S@+]([O-])C(c1ccccc1)c1ccccc1 [S-modafinil, S-(+)-modafinil]",IC50,"NET [1]; read-out: IC50, inhibition of [3H]DA uptake at the NET, N=3, data not shown",> 100 µM
same,IC50,"NET [2]; read-out: IC50, inhibition of [3H]nisoxetine binding at the NET, N=3, data not shown",> 100 µM
same,"ED50 Value, substitution for cocaine (95% confidence limits)","[3]; cocaine 5 min, modafinils 60 min before testing",89.0 (64.0 – 115) μmol/kg
same,substitution for the discriminative-stimulus effects of cocaine,[3],fully substituted for cocaine
CCCCN1[C@@H]2CC[C@H]1CC(OC(c1ccc(F)cc1)c1ccc(F)cc1)C2 (stereo partly shown) [JHW 007],Y335A:WT IC50 ratio for [3H]DA uptake inhibition,hDAT Y335A,~ 20 fold
COC(=O)[C@H]1[C@@H](OC(=O)c2ccccc2)C[C@@H]2CC[C@H]1N2C [cocaine],"extracellular DA levels, maximum as % of basal levels",[4]; 10 – 55 mg/kg,approximately 700 % of basal levels
same,time after injection of maximum DA,[4]; 10 – 55 mg/kg,~ 30 min
NC(=O)C[S+]([O-])C(c1ccccc1)c1ccccc1 (racemic) [(±)-modafinil],[3H]DA uptake inhibition potency lower than observed for DA,hDAT WT [5],more than 7 fold
same,substitution for the discriminative-stimulus effects of cocaine,[3],fully substituted for cocaine
"NC(=O)C[S@@+]([O-])C(c1ccccc1)c1ccccc1 [R-modafinil, R-(−)-modafinil]",higher affinity for DAT than the S-enantiomer,hDAT WT [6],~ 3 fold
same,IC50,NET [1],> 100 µM
same,IC50,NET [2],> 100 µM
same,"extracellular DA levels, stimulation as % of DA basal levels","[4]; 30, 100, 300 mg/kg i.p.",approximately 300 % of DA basal levels
same,time after injection at which DA stimulation was reached,"[4]; 30, 100, 300 mg/kg i.p.",40 to 60 min
same,substitution for the discriminative-stimulus effects of cocaine,[3],fully substituted for cocaine
same,higher affinity for the DAT than the S-enantiomer,DAT,~ 3 fold
